According to patent US10799545B2, “Transdermal delivery of cannabidiol with other active moieties including cannabinoids” (LIFE TECH GLOBAL, LLC, priority 2016, dated 2020):
“Also recorded” adds a separate entry of the source.

Columns and labels:
[1] = Franz Diffusion Cell, CBD flux from monolithic adhesive patch through human cadaver skin; type: in vitro ADME; details: monolithic patches: Vistanex LM 5% or 10% CBD, DuroTak 87-2516 10% CBD, BIO PSA 7-4302 5% CBD (FIG. 7)
Protocol: Formulations of monolithic patches were prepared by solubilizing CBD in different adhesives and CBD transdermal flux was performed through human cadaver skin using Franz Diffusion Cell method. We found the highest transdermal flux of CBD from a formulation that comprises PIB adhesive and 10% CBD.
A monolithic transdermal device 40 is constructed using a matrix 44 of pure CBD and three different adhesives. A first device 40 includes a PE/PET backing and a matrix 44 comprising 95 percent Vistanex) LM polyisobutylene adhesive by weight of matrix 44 mixed with 5 percent substantially pure CBD by weight of matrix 44. A second device is similarly constructed, but the amount of CBD in the matrix 44 is 10 percent by weight of the matrix 44, and the amount of Vistanex LM is 90 percent by weight of the matrix 44. A third patch is constructed using a DuroTak 87-2516 adhesive in an amount of 90 percent by weight of matrix 44 and 10 percent CBD by weight of matrix 44, and a fourth patch is constructed using a BIO PSA 7-4302 adhesive in an amount of 95 percent by weight of matrix 44 and 5 percent CBD by weight of matrix 44.

[2] = Franz Diffusion Cell, CBD flux from reservoir transdermal device through human cadaver epidermis; type: in vitro ADME
Protocol: The effects of using a hydrophobic, porous membrane versus a hydrophilic, porous membrane (such as membrane 24) in reservoir transdermal device 20 are studied in this example. A mixture is formed by dissolving CBD powder in ethanol to yield a solution comprising 10 percent by weight CBD and 90 percent by weight ethanol. The backing 22 is an occlusive backing film (PE/PET from 3M). Hydroxy ethyl cellulose is added to the solution to yield a thixotropic preparation 27. A volume of 300 μL of the preparation is placed in the reservoir 26.
The skin adhesive 30 is a BIO PSA 7-4301 adhesive coated to a thickness of 15 g/m^2 on side 36 of membrane 24. An overlay adhesive patch is placed over the reservoir which forms an island in the middle. The overlay assures adhesion of the reservoir to the skin. The device 20 is contacted with a human cadaver epidermis, and diffusion through the epidermis is measured using the Franz Diffusion Cell method.
In a first run, membrane 24 is a Lydall® Evopor™ 5E02A, hydrophilic, microporous membrane (of 0.2 μm pore size). In a second run, the device 20 is constructed similarly, but membrane 24 is a hydrophobic Lydall® Solupor™ 7P03A porous membrane.
The reservoir device 20 of Example 1 is used, but instead of using ethanol alone as the liquid carrier, a mixture of ethanol and water is used wherein the ethanol comprises 70 percent by weight of the ethanol/water mixture, and water comprises 30 percent by weight of the ethanol/water mixture. The amount of CBD by weight of the combination of CBD and ethanol/water is 5 percent, and the amount of ethanol/water is 91.5 percent. The gelling agent is hydroxyethylcellulose, which is present in an amount of about 3.5% by weight of the preparation 27. […]
The device 20 is contacted with a human cadaver epidermis, and diffusion through the epidermis is measured using the Franz Diffusion Cell method. In a first run, the hydrophilic, porous membrane 24 of Example 1 is used. In a second run, the membrane 24 is omitted so that CBD diffuses directly through the skin adhesive 30.
This example is conducted using three reservoir transdermal devices such as those of Example 1, with each having the hydrophilic, porous membrane described therein. In each case, the preparation includes a mixture of CBD and a liquid carrier with ten (10) percent CBD by weight of the CBD/liquid carrier mixture. Three runs are conducted, each with a device that includes a different liquid carrier in its preparation 27: 1, 2 propylene glycol, PEG-300, and oleic acid. Diffusion through a human cadaver epidermis is measured using the Franz Diffusion Method.
This example is similar to Example 3, except that an ethanol carrier is also tested. As stated above, FIG. 6 is a graph depicting the cumulative flux (μg/cm^2) of CBD through a human cadaver epidermis over a six hour period from solutions comprising ten (10) percent by weight CBD and 90 percent by weight of one of four liquid carriers.

[3] = 10% CBD / 90% liquid carrier, six hour period (FIG. 6)

In the case of `C=C(C)[C@@H]1CCC(C)=C[C@H]1c1c(O)cc(CCCCC)cc1O` [CBD, Cannabidiol], the “transdermal flux of CBD, PIB (Vistanex LM) adhesive / 10% CBD relative to the other monolithic formulations” value [1] is reported as “superior; also recorded: highest”, the “permeability of CBD through the skin, with versus without membrane 24” value ([2]; 5% CBD in ethanol/water 70/30, hydrophilic porous membrane used or omitted (FIG. 4)) is reported as “the same” and the “cumulative flux of CBD, hydrophilic membrane device versus hydrophobic membrane device” value ([2]; 10% CBD / 90% ethanol, hydrophilic Evopor 5E02A membrane, after about 9 hours (FIG. 3)) is reported as “significantly exceeds”. For the same compound, the “rate of transfer of CBD through the skin, oleic acid versus 1,2 propylene glycol or PEG-300” value ([2]; 10% CBD / 90% liquid carrier, hydrophilic membrane, six hour period (FIG. 5)) was “significantly better”, the “transfer of CBD through the skin, ethanol relative to 1,2 propylene glycol and PEG-300” value [2, 3] was “superior” and the “transfer of CBD through the skin, oleic acid relative to ethanol, 1,2 propylene glycol and PEG-300” value [2, 3] was “superior”. For the same compound, the “expected daily dose, reservoir device relative to monolithic patch of the same skin contact area” value ([2]; 20 cm^2 skin contact area) was “six times higher”, the “cumulative flux of cannabidiol (CBD)” value ([2]; reservoir device, 5% by weight CBD and 70% by weight ethanol liquid carrier, at 12 hours) was 110 micrograms/cm^2 and the “cumulative flux of cannabidiol (CBD)” value ([2]; reservoir device, 5% by weight CBD and 70% by weight ethanol liquid carrier, at 24 hours) was 300 micrograms/cm^2. The “cumulative flux of CBD, asymptotic value” ([2]; reservoir device, 10% CBD / 90% ethanol, hydrophobic Solupor 7P03A porous membrane (FIG. 3)) was “about 300 μg/cm^2”, the “cumulative flux of cannabidiol (CBD)” value ([2]; reservoir device, 10% by weight CBD and 90% by weight ethanol liquid carrier, hydrophilic porous membrane, at 7 hours) was 150 micrograms/cm^2 and the “cumulative flux of cannabidiol (CBD)” value ([2]; reservoir device, 10% by weight CBD and 90% by weight ethanol liquid carrier, hydrophilic porous membrane, at 17 hours) was 700 micrograms/cm^2. The “cumulative flux of cannabidiol (CBD)” value ([2]; reservoir device, 10% by weight CBD and 90% by weight oleic acid, over six hours) was 180 micrograms/cm^2, the “cumulative flux of cannabidiol (CBD)” value ([2]; reservoir device, ethanol liquid carrier, over 6 hours) was 70 micrograms/cm^2 and the “transdermal delivery of CBD from saturated ethanol solution versus monolithic patch” value ([2]; reservoir patch formulation) was “significantly higher”.
